Assay results taken from patent US20170239249A1, “QUINAZOLINE-BASED KINASE INHIBITORS” (Bristol-Myers Squibb Company, priority 2014, published 2017).

Each compound was assayed against AAK1 (full length human) (Homo sapiens, UniProt Q2M2I8) (assay: HEK281 Cell-Based Assay (phospho-mu2 Western blot in HEK293F cells transfected with AAK1 and AP2M1)). Details: IC50 (nM), functional potency; inhibition of mu2 phosphorylation in HEK293F cells, 3 hours incubation, 5 concentrations.
Chain of AAK1 (full length human) (Q2M2I8 1-863 isoform Q2M2I8-2): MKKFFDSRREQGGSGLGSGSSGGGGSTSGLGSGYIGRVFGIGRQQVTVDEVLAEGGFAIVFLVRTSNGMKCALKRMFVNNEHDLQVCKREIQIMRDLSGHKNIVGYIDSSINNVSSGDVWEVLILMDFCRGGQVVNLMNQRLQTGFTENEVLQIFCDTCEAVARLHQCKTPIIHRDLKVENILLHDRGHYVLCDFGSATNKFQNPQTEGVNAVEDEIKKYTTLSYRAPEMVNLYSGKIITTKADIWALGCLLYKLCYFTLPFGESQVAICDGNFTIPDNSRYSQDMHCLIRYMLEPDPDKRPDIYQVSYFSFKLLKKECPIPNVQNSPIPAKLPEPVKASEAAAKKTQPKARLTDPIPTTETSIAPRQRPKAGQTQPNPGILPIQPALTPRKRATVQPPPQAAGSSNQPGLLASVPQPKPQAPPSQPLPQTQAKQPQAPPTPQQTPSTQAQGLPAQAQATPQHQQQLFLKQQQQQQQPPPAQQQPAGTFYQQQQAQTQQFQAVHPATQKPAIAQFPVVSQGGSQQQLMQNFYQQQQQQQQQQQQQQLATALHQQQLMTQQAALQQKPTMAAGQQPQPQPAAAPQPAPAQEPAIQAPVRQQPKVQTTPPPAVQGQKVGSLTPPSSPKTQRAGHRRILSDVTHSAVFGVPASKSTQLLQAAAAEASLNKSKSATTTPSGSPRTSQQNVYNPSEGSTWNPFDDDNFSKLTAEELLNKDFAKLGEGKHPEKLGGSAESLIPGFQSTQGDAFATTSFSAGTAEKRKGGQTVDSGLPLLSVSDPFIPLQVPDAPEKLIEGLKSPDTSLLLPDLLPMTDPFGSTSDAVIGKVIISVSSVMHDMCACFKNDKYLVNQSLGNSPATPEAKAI
`CC(C)CC(N)c1nc(C#N)c2cc(-c3ccncc3)ccc2n1` (centres unmarked) [Example 33, 2-(1-Amino-3-methylbutyl)-6-(pyridin-4-yl)quinazoline-4-carbonitrile] was tested, and the IC50 was 14 nM. `COc1cnccc1-c1ccc2nc(C(N)CC(C)C)nc(C#N)c2c1` (centres unmarked) [Example 34, 2-(1-Amino-3-methylbutyl)-6-(3-methoxypyridin-4-yl)quinazoline-4-carbonitrile] showed an IC50 of 12 nM. `COc1cc2nc(C(N)CC(C)C)nc(C#N)c2cc1-c1ccncc1` (centres unmarked) [Example 35, 2-(1-Amino-3-methylbutyl)-7-methoxy-6-(pyridin-4-yl)quinazoline-4-carbonitrile] gave an IC50 of 68 nM. In the case of `COc1cc2nc([C@H](N)CC(C)C)ncc2cc1-c1cnco1` [Example 36, (R)-1-(7-Methoxy-6-(oxazol-5-yl)quinazolin-2-yl)-3-methylbutan-1-amine], the IC50 is reported as 113 nM. `COc1nc(CCC(C)C)nc2ccc(-c3cn[nH]c3)cc12` [Example 37, 2-Isopentyl-4-methoxy-6-(1H-pyrazol-4-yl)quinazoline] showed an IC50 of 1010 nM. `COc1nc(CCC(C)C)nc2ccc(-c3ccncc3)cc12` [Example 38, 2-Isopentyl-4-methoxy-6-(pyridin-4-yl)quinazoline] showed an IC50 of 1070 nM. Compound `CNc1nc(CCC(C)C)nc2ccc(-c3cnco3)cc12` [Example 39, 2-Isopentyl-N-methyl-6-(oxazol-5-yl)quinazolin-4-amine] has an IC50 of 1140 nM. With `CC(C)CCc1nc(N(C)C)c2cc(-c3cnco3)ccc2n1` [Example 40, 2-Isopentyl-N,N-dimethyl-6-(oxazol-5-yl)quinazolin-4-amine] the IC50 was 412 nM. Compound `COc1nc(CCC(C)C)nc2ccc(-c3cnco3)cc12` [Example 41, 5-(2-Isopentyl-4-methoxyquinazolin-6-yl)oxazole] has an IC50 of 3150 nM. `CC(C)CCc1nc2ccc(-c3cnco3)cc2c(=O)[nH]1` [Example 42, 2-Isopentyl-6-(oxazol-5-yl)quinazolin-4(3H)-one] was tested, and the IC50 was 49 nM. In the case of `CSc1nc(CCC(C)C)nc2ccc(-c3cnco3)cc12` [Example 43, 5-(2-Isopentyl-4-(methylthio)quinazolin-6-yl)oxazole], the IC50 is reported as 159 nM. `CC(C)CCc1nc(NCCN)c2cc(-c3cnco3)ccc2n1` [Example 44, N^1-(2-Isopentyl-6-(oxazol-5-yl)quinazolin-4-yl)ethane-1,2-diamine] gave an IC50 of 2010 nM. With `CCc1nc(CCC(C)C)nc2ccc(-c3ccncc3)cc12` [Example 45, 4-Ethyl-2-isopentyl-6-(pyridin-4-yl)quinazoline] the IC50 was 400 nM. `CC(C)CCc1nc(C(C)C)c2cc(-c3ccncc3)ccc2n1` [Example 46, 2-Isopentyl-4-isopropyl-6-(pyridin-4-yl)quinazoline] showed an IC50 of 1390 nM. `CC(C)CCc1nc(C2CC2)c2cc(-c3ccncc3)ccc2n1` [Example 47, 4-Cyclopropyl-2-isopentyl-6-(pyridin-4-yl)quinazoline] gave an IC50 of 1340 nM. `CC(C)CCc1nc(NCCN(C)C)c2cc(-c3ccncc3)ccc2n1` [Example 48, N-(2-Isopentyl-6-(pyridin-4-yl)quinazolin-4-yl)-N^2,N^2-dimethylethane-1,2-diamine] showed an IC50 of 1190 nM. With `CC(C)CCc1nc2ccc(-c3ccncc3)cc2c(=O)[nH]1` [Example 49, 2-Isopentyl-6-(pyridin-4-yl)quinazolin-4(3H)-one] the IC50 was 54 nM. `CC(C)CCc1nc(NCCO)c2cc(-c3ccncc3)ccc2n1` [Example 50, 2-(2-Isopentyl-6-(pyridin-4-yl)quinazolin-4-ylamino)ethanol] gave an IC50 of 301 nM. `CC(C)CCc1nc2ccc(-c3cn[nH]c3)cc2c(=O)[nH]1` [Example 51, 2-Isopentyl-6-(1H-pyrazol-4-yl)quinazolin-4(3H)-one] gave an IC50 of 22 nM. Work on `CCc1nc(CCC(C)C)nc2cc(OC)c(-c3cnco3)cc12` [Example 52, 5-(4-Ethyl-2-isopentyl-7-methoxyquinazolin-6-yl)oxazole] yielded an IC50 of 1270 nM. `CC(C)CCc1nc(C(N)=O)c2cc(-c3ccncc3)ccc2n1` [Example 53, 2-Isopentyl-6-(pyridin-4-yl)quinazoline-4-carboxamide] showed an IC50 of 354 nM. Work on `CCOc1cc2nc(CCC(C)C)nc(CC)c2cc1-c1cnco1` [Example 54, 5-(7-Ethoxy-4-ethyl-2-isopentylquinazolin-6-yl) oxazole] yielded an IC50 of 2590 nM. With `COc1nc(C(N)CC(C)C)nc2ccc(-c3ccncc3)cc12` (centres unmarked) [Example 55, 1-(4-Methoxy-6-(pyridin-4-yl)quinazolin-2-yl)-3-methylbutan-1-amine] the IC50 was 97 nM. With `CC(C)CCc1nc2ccc(-c3cnco3)cc2c(=S)[nH]1` [Example 56, 2-Isopentyl-6-(oxazol-5-yl)quinazoline-4(3H)-thione] the IC50 was 5 nM. For `CCc1nc(CCC(C)C)nc2ccc(-c3cnco3)cc12` [Example 57, 5-(4-Ethyl-2-isopentylquinazolin-6-yl)oxazole], the IC50 was 1860 nM. `COc1cc2nc(CCC(C)C)[nH]c(=O)c2cc1-c1cnco1` [Example 58, 2-Isopentyl-7-methoxy-6-(oxazol-5-yl)quinazolin-4(3H)-one] was tested, and the IC50 was 20 nM. With `CC(C)CCc1nc(C(=O)N(C)C)c2cc(-c3ccncc3)ccc2n1` [Example 59, 2-Isopentyl-N,N-dimethyl-6-(pyridin-4-yl)quinazoline-4-carboxamide] the IC50 was 2670 nM. With `CC(C)CCc1nc(C#N)c2cc(-c3ccncc3)ccc2n1` [Example 60, 2-Isopentyl-6-(pyridin-4-yl)quinazoline-4-carbonitrile] the IC50 was 144 nM. `CC(C)CCC1=Nc2ccc(-c3ccncc3)cc2C(CO)N1` (centres unmarked) [Example 61, (2-Isopentyl-6-(pyridin-4-yl)-3,4-dihydroquinazolin-4-yl)methanol] was tested, and the IC50 was 35 nM. Compound `CCc1nc(C(N)CC(C)C)nc2ccc(-c3ccncc3)cc12` (centres unmarked) [Example 62, 1-(4-Ethyl-6-(pyridin-4-yl)quinazolin-2-yl)-3-methylbutan-1-amine] has an IC50 of 37 nM. For `CCc1nc(C(N)CC(C)C)nc2ccc(-c3cn[nH]c3)cc12` (centres unmarked) [Example 63, 1-(4-Ethyl-6-(1H-pyrazol-4-yl)quinazolin-2-yl)-3-methylbutan-1-amine], the IC50 was 28 nM. With `CCc1nc(C(N)CC(C)C)nc2ccc(-c3ccncn3)cc12` (centres unmarked) [Example 64, 1-(4-Ethyl-6-(pyrimidin-4-yl)quinazolin-2-yl)-3-methylbutan-1-amine] the IC50 was 83 nM. `CCc1nc(C(C)CC(C)C)nc2ccc(-c3ccncc3)cc12` (centres unmarked) [Example 65, 4-Ethyl-2-(4-methylpentan-2-yl)-6-(pyridin-4-yl)quinazoline] was tested, and the IC50 was 223 nM. `CCc1nc(C(C)CC(C)C)nc2ccc(-c3ccnc(NC(C)=O)c3)cc12` (centres unmarked) [Example 66, N-(4-(4-Ethyl-2-(4-methylpentan-2-yl)quinazolin-6-yl)pyridin-2-yl)acetamide] gave an IC50 of 258 nM. `CCc1nc(C(C)CC(C)C)nc2ccc(-c3ccnc(NC)c3)cc12` (centres unmarked) [Example 67, 4-(4-Ethyl-2-(4-methylpentan-2-yl)quinazolin-6-yl)-N-methylpyridin-2-amine] gave an IC50 of 1500 nM. `CCc1nc(C(CN)CC(C)C)nc2ccc(-c3ccncc3)cc12` (centres unmarked) [Example 68, 2-(4-Ethyl-6-(pyridin-4-yl)quinazolin-2-yl)-4-methylpentan-1-amine] was tested, and the IC50 was 144 nM. With `CCc1nc(C(N)CCC(F)(F)F)nc2ccc(-c3ccncc3)cc12` (centres unmarked) [Example 69, 1-(4-Ethyl-6-(pyridin-4-yl)quinazolin-2-yl)-4,4,4-trifluorobutan-1-amine] the IC50 was 32 nM. `CCc1nc([C@H](N)CC2CC2)nc2ccc(-c3ccncc3)cc12` [Example 70, (R)-2-Cyclopropyl-1-(4-ethyl-6-(pyridin-4-yl)quinazolin-2-yl)ethanamine] was tested, and the IC50 was 126 nM. For `CCc1nc([C@H](N)C2CCCC2)nc2ccc(-c3ccncc3)cc12` [Example 71, (R)-Cyclopentyl(4-ethyl-6-(pyridin-4-yl)quinazolin-2-yl)methanamine], the IC50 was 32 nM. In the case of `CCc1nc([C@H](N)C2CCCCC2)nc2ccc(-c3ccncc3)cc12` [Example 72, (R)-Cyclohexyl(4-ethyl-6-(pyridin-4-yl)quinazolin-2-yl)methanamine], the IC50 is reported as 13 nM. With `CC(C)CC(N)c1nc(N2CCC2)c2cc(-c3ccncc3)ccc2n1` (centres unmarked) [Example 73, 1-(4-(Azetidin-1-yl)-6-(pyridin-4-yl)quinazolin-2-yl)-3-methylbutan-1-amine] the IC50 was 44 nM. With `CC(C)CC(N)c1nc(N2CC2)c2cc(-c3ccncc3)ccc2n1` (centres unmarked) [Example 74, 1-(4-(Aziridin-1-yl)-6-(pyridin-4-yl)quinazolin-2-yl)-3-methylbutan-1-amine] the IC50 was 263 nM. With `COc1cc2nc(CCC(C)C)nc(C)c2cc1-c1cnco1` [Example 75, 5-(2-Isopentyl-7-methoxy-4-methylquinazolin-6-yl)oxazole] the IC50 was 590 nM. For `CC(C)CCc1nc(NCCO)c2cc(-c3cnco3)ccc2n1` [Example 76, 2-((2-Isopentyl-6-(oxazol-5-yl)quinazolin-4-yl)amino)ethanol], the IC50 was 1810 nM. `COCCNc1nc(CCC(C)C)nc2ccc(-c3cnco3)cc12` [Example 77, 2-Isopentyl-N-(2-methoxyethyl)-6-(oxazol-5-yl)quinazolin-4-amine] was tested, and the IC50 was 3460 nM. In the case of `CC(C)CCc1nc(NCCN2CCCC2)c2cc(-c3cnco3)ccc2n1` [Example 78, 2-Isopentyl-6-(oxazol-5-yl)-N-(2-(pyrrolidin-1-yl)ethyl)quinazolin-4-amine], the IC50 is reported as 1090 nM. Compound `Cc1cnc(CNc2nc(CCC(C)C)nc3ccc(-c4cnco4)cc23)cn1` [Example 79] has an IC50 of 6600 nM. `CC(C)CCc1nc(NCCCN(C)C)c2cc(-c3cnco3)ccc2n1` [Example 80, N^1-(2-Isopentyl-6-(oxazol-5-yl)quinazolin-4-yl)-N^3,N^3-dimethylpropane-1,3-diamine] showed an IC50 of 3320 nM. Work on `CC(C)CCc1nc(NCCN(C)C)c2cc(-c3cnco3)ccc2n1` [Example 81, N^1-(2-Isopentyl-6-(oxazol-5-yl)quinazolin-4-yl)-N^2,N^2-dimethylethane-1,2-diamine] yielded an IC50 of 8610 nM. For `COC(=O)CCNc1nc(CCC(C)C)nc2ccc(-c3cnco3)cc12` [Example 82, Methyl 3-((2-isopentyl-6-(oxazol-5-yl)quinazolin-4-yl)amino)propanoate], the IC50 was 4620 nM.
